According to patent US10422788B2, “Profiling peptides and methods for sensitivity profiling” (Tolero Pharmaceuticals, Inc., priority 2016, dated 2019):

Tests used:
[1] = test system: OCI-AML3; details: published NOXA test results; cited from earlier work
[2] = test system: KG-1; details: published NOXA test results; cited from earlier work
[3] = test system: U-937; details: published NOXA test results; cited from earlier work
[4] = test system: THP-1; details: published NOXA test results; cited from earlier work
[5] = test system: HL-60; details: published NOXA test results; cited from earlier work
[6] = test system: MV4-11; details: published NOXA test results; cited from earlier work
[7] = test system: MOLM-13; details: published NOXA test results; cited from earlier work
[8] = test system: subject samples; experiment: Reference Lab NOXA priming assay on subject samples; assay type: cell-based, human
[9] = test system: OCI-AML3 cells; experiment: Titration of concentrations of profiling peptides, Mcl-1 dependency percentage (JC-1); assay type: cell-based; details: profiling peptide at 10 μM; FIG. 2
Method: Briefly, frozen OCI-AML3 cell stocks were rapidly thawed, and cell viability was determined by Trypan Blue exclusion. Cells were washed in PBS and resuspended in DTEB (or MEB) buffer (135 mM Trehalose [or 150 mM Mannitol], 10 mM HEPES, 50 mM KCl, 20 μM EGTA, 20 μM EDTA, 0.1% BSA, 5 mM succinate). The profiling peptides and NOXA (SEQ ID NO:16) were reconstituted in water to make working solutions allowing for final concentrations of: SEQ ID NO:1 (100 μM), SEQ ID NO:1 (30 μM), SEQ ID NO:1 (10 μM), and NOXA (100 μM). […] Profiling peptides, controls, or NOXA (for comparison purposes) were first added to a microplate. […] Fluorescence signal of each well was assessed using an Envision multilabel plate reader at Ex475/Em530 and Ex530/Em595.
Statistical Analysis: For each peptide, the Mcl-1 dependency percentage was calculated using the following formula that determines the dependency:
[formula] Where PC is the fluorescence intensity of the positive control, NC is the fluorescence intensity of the negative control, and Pep is the fluorescence intensity of the peptide at the noted concentration.

[10] = test system: MOLM-13 cells; experiment: Whole cell assay, JC-1 mitochondrial potential, cells lacking digitonin (FIG. 1B); assay type: cell-based; details: 100 μM peptide, no digitonin
Method: Briefly, frozen MOLM-13 and OCI-AML3 cell stocks were rapidly thawed, and cell viability was determined by Trypan Blue exclusion. Cells were washed in PBS and resuspended in DTEB (or MEB) buffer (135 mM Trehalose [or 150 mM Mannitol], 10 mM HEPES, 50 mM KCl, 20 μMI EGTA, 20 μM EDTA, 0.1% BSA, and 5 mM succinate). The profiling peptides and NOXA ([…]; SEQ ID NO:16) were reconstituted in water to make working solutions allowing for final concentrations of: SEQ ID NO:1 (100 μM), SEQ ID NO:14 (100 μM), SEQ ID NO:15 (100 μM), and NOXA (100 μM). […] Profiling peptides, controls, or NOXA (for comparison purposes) were first added to a microplate. Cells (4×10^5) resuspended in DTEB or MEB buffers were then added to a staining solution ([…], 40 μM JC-1, 1 M 2-mercaptoethanol, DTEB or MEB buffer), before being added to the wells of the microplate in the above (for non-digitonin-treated samples, digitonin was not added to the staining solution above). The mixture was then incubated for up to 2 hours at 30° C., in order for cell permeabilization (if needed), delivery of peptides or compounds, and mitochondrial depolarization to occur. Fluorescence signal of each well was assessed using an Envision multilabel plate reader at Ex475/Em530 and Ex530/Em595. […]

[11] = test system: MOLM-13 cells; experiment: Addition of ryanodine to the Example 5 assay; assay type: cell-based; details: 20 nM Ryanodine; Tat-mediated calcium release from the ER; FIG. 4
[12] = Sample # 17, subject treated with FLAM, complete response
[13] = Sample # 18, subject treated with FLAM, complete response
[14] = Sample # 19, subject treated with FLAM, complete response

AELPPEFAAQLRKIGDKVYC (NOXA sequence) [standard NOXA BH3 peptide, used for comparison]
NOXA Priming % [1]: 21.96% | NOXA Priming % [2]: 12.39% | NOXA Priming % [3]: 24.35% | NOXA Priming % [4]: 11.28% | NOXA Priming % [5]: 7.60% | NOXA Priming % [6]: 12.84% | NOXA Priming % [7]: 19.24% | Reference Lab NOXA Priming % ([8]; Sample # 1): 14.0% | Reference Lab NOXA Result (Pos/Neg) ([8]; Sample # 1): Neg (Concordance based on cutoff of ≥40% MCL-1 Dependency for both methods.) | Reference Lab NOXA Priming % ([8]; Sample # 2): 60.0% | Reference Lab NOXA Result (Pos/Neg) ([8]; Sample # 2): Pos (Concordance based on cutoff of ≥40% MCL-1 Dependency for both methods.) | Reference Lab NOXA Priming % ([8]; Sample # 3): 16.0% | Reference Lab NOXA Result (Pos/Neg) ([8]; Sample # 3): Neg (Concordance based on cutoff of ≥40% MCL-1 Dependency for both methods.) | Reference Lab NOXA Priming % ([8]; Sample # 4): 0.0% | Reference Lab NOXA Result (Pos/Neg) ([8]; Sample # 4): Neg (Concordance based on cutoff of ≥40% MCL-1 Dependency for both methods.) | Reference Lab NOXA Priming % ([8]; Sample # 5): 94.4% | Reference Lab NOXA Result (Pos/Neg) ([8]; Sample # 5): Pos (Concordance based on cutoff of ≥40% MCL-1 Dependency for both methods.) | Reference Lab NOXA Priming % ([8]; Sample # 6): 48.6% | Reference Lab NOXA Result (Pos/Neg) ([8]; Sample # 6): Pos (Concordance based on cutoff of ≥40% MCL-1 Dependency for both methods.) | Reference Lab NOXA Priming % ([8]; Sample # 7): 0.0% | Reference Lab NOXA Result (Pos/Neg) ([8]; Sample # 7): Neg (Concordance based on cutoff of ≥40% MCL-1 Dependency for both methods.) | Reference Lab NOXA Priming % ([8]; Sample # 8): 23.5% | Reference Lab NOXA Result (Pos/Neg) ([8]; Sample # 8): Neg (Concordance based on cutoff of ≥40% MCL-1 Dependency for both methods.) | Reference Lab NOXA Priming % ([8]; Sample # 9): 79.1% | Reference Lab NOXA Result (Pos/Neg) ([8]; Sample # 9): Pos (Concordance based on cutoff of ≥40% MCL-1 Dependency for both methods.) | Reference Lab NOXA Priming % ([8]; Sample # 10): 38.0% | Reference Lab NOXA Result (Pos/Neg) ([8]; Sample # 10): Neg (Concordance based on cutoff of ≥40% MCL-1 Dependency for both methods.) | Reference Lab NOXA Priming % ([8]; Sample # 11): 43.3% | Reference Lab NOXA Result (Pos/Neg) ([8]; Sample # 11): Pos (Concordance based on cutoff of ≥40% MCL-1 Dependency for both methods.) | Reference Lab NOXA Priming % ([8]; Sample # 12): 0.0% | Reference Lab NOXA Result (Pos/Neg) ([8]; Sample # 12): Neg (Concordance based on cutoff of ≥40% MCL-1 Dependency for both methods.) | Reference Lab NOXA Priming % ([8]; Sample # 13): 0.0% | Reference Lab NOXA Result (Pos/Neg) ([8]; Sample # 13): Neg (Concordance based on cutoff of ≥40% MCL-1 Dependency for both methods.) | Reference Lab NOXA Priming % ([8]; Sample # 14): 0.0% | Reference Lab NOXA Result (Pos/Neg) ([8]; Sample # 14): Neg (Concordance based on cutoff of ≥40% MCL-1 Dependency for both methods.) | Reference Lab NOXA Priming % ([8]; Sample # 15): 7.0% | Reference Lab NOXA Result (Pos/Neg) ([8]; Sample # 15): Neg (Concordance based on cutoff of ≥40% MCL-1 Dependency for both methods.) | Reference Lab NOXA Priming % ([8]; Sample # 16): 7.0% | Reference Lab NOXA Result (Pos/Neg) ([8]; Sample # 16): Neg (Concordance based on cutoff of ≥40% MCL-1 Dependency for both methods.) | Reference Lab NOXA Priming % [8, 12]: 10.89% | Reference Lab NOXA Result (Pos/Neg) [8, 12]: Neg (Concordance based on cutoff of ≥40% MCL-1 Dependency for both methods.) | Reference Lab NOXA Priming % [8, 13]: 14.43% | Reference Lab NOXA Result (Pos/Neg) [8, 13]: Neg (Concordance based on cutoff of ≥40% MCL-1 Dependency for both methods.) | Reference Lab NOXA Priming % [8, 14]: 0.0% | Reference Lab NOXA Result (Pos/Neg) [8, 14]: Neg (Concordance based on cutoff of ≥40% MCL-1 Dependency for both methods.)

RPEIWMTQGLRRLGDEINAYYAR (Exemplary Mcl-1 Binding Domain sequence) [SEQ ID NO:1]
Mcl-1 dependency percentage compared to NOXA at 100 μM [9]: comparable value

RPEIWMTQGLRRLGDEINAYYARGGGYGRKKRRQRRR (profiling peptide sequence) [SEQ ID NO:15]
activity compared to the positive control (FCCP) [10]: exceeded the activity of the positive control

ryanodine
nonspecific dye uptake [11]: prevented nonspecific dye uptake
